Drawing on PubChem BioAssay AID696 (Sanford-Burnham Center for Chemical Genomics, 2007), this text covers EC50 for 39 compounds.

The target in this test is Alkaline phosphatase, placental type (Homo sapiens) (UniProt P05187). Briefly: PLAP enzyme activators, biochemical, luminescence, HTS (AID 696). The settings on record: purified PLAP enzyme, luminescent substrate read-out.
Alkaline phosphatase, placental type (Homo sapiens), sequence (P05187 whole entry, looked up): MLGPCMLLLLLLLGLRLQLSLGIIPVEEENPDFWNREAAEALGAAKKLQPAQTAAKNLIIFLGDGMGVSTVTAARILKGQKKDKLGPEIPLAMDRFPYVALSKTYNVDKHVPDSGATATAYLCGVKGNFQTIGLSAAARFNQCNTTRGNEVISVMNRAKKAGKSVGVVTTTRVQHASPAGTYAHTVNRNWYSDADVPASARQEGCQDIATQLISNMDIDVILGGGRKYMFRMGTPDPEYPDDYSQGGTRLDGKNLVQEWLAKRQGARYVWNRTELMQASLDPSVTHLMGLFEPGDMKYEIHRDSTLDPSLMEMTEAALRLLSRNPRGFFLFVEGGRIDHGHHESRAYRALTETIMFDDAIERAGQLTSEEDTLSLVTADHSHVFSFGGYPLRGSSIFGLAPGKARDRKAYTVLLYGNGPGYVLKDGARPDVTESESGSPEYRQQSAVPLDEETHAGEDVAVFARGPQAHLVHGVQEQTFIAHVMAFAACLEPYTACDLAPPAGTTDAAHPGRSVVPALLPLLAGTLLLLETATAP
In the case of `O=C(Oc1ccc2c(=O)c(Oc3ccc4ccccc4c3)coc2c1)c1cncc(Br)c1`, the EC50 is 74 µM.

As to `CCn1c(SCC(=O)c2ccc(O)c(O)c2)nnc1-c1ccccc1`, the EC50 was 79.4 µM.

`CC1Cc2ccccc2N1C(=O)CSc1nnc(Cc2ccccc2)n1CCc1ccccc1` (centres undefined): the EC50 was 86.8 µM.

As to `CC(C)N=c1scc(-c2ccco2)n1/N=C/c1ccc(O)c(O)c1`, the EC50 is 48.2 µM.

For `COc1cccc(NCc2cc3c(C(C)(C)C)nn(-c4ccccc4)c3[nH]c2=O)c1`, the EC50 is 78 µM.

Consider `CCCCN1CCc2c1nc1ccc(Br)cc1c2N`, for which the EC50 was 77.2 µM.

Turning to `O=C(Cn1c(=O)n(-c2ccccc2)c(=O)c2sccc21)N1CCCC1`, the EC50 is 2.65 µM.

`CCCCOC(=O)C(C)Nc1n[nH]c(=S)[nH]c1=O` (centres undefined): the EC50 was 21.4 µM.

With `COc1ccc(-c2nnc(-c3ccc(Br)o3)o2)cc1OC`, the EC50 was 25.9 µM.

Take `O=C(Cn1c(=O)oc2cc(S(=O)(=O)N3CCCC3)ccc21)NCc1ccc(F)cc1`: the EC50 was 0.457 µM.

`CCCn1c(CNc2ccc(Br)cc2)nc2ccccc21`: the EC50 is 48.5 µM.

Take `O=C(Nc1ccccc1)NC1(C(=O)N2CCN(C(=O)c3ccco3)CC2)CCCCC1`: the EC50 was 35.6 µM.

For `Cc1cccc(N2C(=O)NC(=O)/C(=C\c3cnn(-c4ccccc4)c3)C2=O)c1`, the EC50 is 1.09 µM.

On to `CC(C)n1c(-c2ccc(N(C)C)cc2)nc2ccccc21`, for which the 50% effective concentration (EC50) was 8.52 µM.

On to `c1ccc(Nc2cccc(Nc3ccccc3)n2)cc1`, for which the EC50 was 37 µM.

As for `Cc1cc(Nc2ccc(Cl)cc2)n(-c2cccc(Cl)c2)n1`, the EC50 is 51 µM.

For `Cc1ccc(-n2c([O-])nc(-[n+]3ccccc3)c2C=O)cc1`, the EC50 is 9.08 µM.

On to `Cc1ccc(C)c(NC(=S)NC(NC(=O)Cc2cccc3ccccc23)C(Cl)(Cl)Cl)c1` (centres undefined), for which the EC50 was 63.1 µM.

Regarding `Cc1nn(C)cc1/C=N\NC(=O)c1ccc2c(c1)c(C)c(C)n2Cc1ccccc1`, the concentration giving a half-maximal response (EC50) was 72.1 µM.

Take `Cc1ccc(/C=N/NC(=O)c2c[nH]c3ccccc23)o1`: the EC50 is 59.2 µM.

On to `N#CC(c1ccc(F)cc1)c1ccc(C(=O)c2ccccc2)cc1` (centres undefined), for which the EC50 is 7.89 µM.

On to `O=P(CCCCCCCCCP(=O)(c1ccccc1)c1ccccc1)(c1ccccc1)c1ccccc1`, for which the half-maximal effective concentration (EC50) is 99.6 µM.

On to `O=[N+]([O-])c1ccc(Sc2nnnn2-c2ccccc2)c(Cl)c1`, for which the EC50 was 26.3 µM.

As for `Cc1ccc(C2CC(c3ccc(Cl)cc3)=NNC2=O)cc1` (centres undefined), the EC50 is 0.203 µM.

Turning to `N#CC(c1ccc(F)cc1)c1ccc(C(=O)c2ccc(F)cc2)cc1` (centres undefined), the EC50 is 23.1 µM.

Regarding `O=C(NC1(C(F)(F)F)Oc2ccc(Cl)cc2O1)N1CCC2(CC1)OCCO2` (centres undefined), the EC50 was 61.9 µM.

Take `COC(=O)c1cn[nH]c1NC(=S)Nc1ccccc1C`: the EC50 was 21.1 µM.

In the case of `c1ccc(CSCCc2ccncc2)cc1`, the 50% effective concentration (EC50) was 66.9 µM.

With `Clc1ccc(-c2cc(CSc3cccc(Cl)c3)on2)cc1`, the EC50 is 69.4 µM.

Take `CC1CC(C)CN(CC(C)(C)NS(=O)(=O)c2ccc(Cl)cc2)C1` (centres undefined): the EC50 was 24.8 µM.

Consider `CCOC(=O)c1c(C)[nH]c(C(=O)CSc2nnc(CC(C)c3ccccc3)o2)c1C` (centres undefined), for which the 50% effective concentration (EC50) was 78.5 µM.

`CCOc1ccc(CNC(=S)N/N=C\c2ccc([N+](=O)[O-])cc2)cc1`: the EC50 was 10.9 µM.

On to `O=P(/C(=N/O)N1CCCCC1)(N1CCOCC1)N1CCOCC1`, for which the EC50 was 54.5 µM.

`O=C(C[n+]1cc2ccccc2c2ccccc21)c1ccccc1`: the EC50 is 94.1 µM.

Regarding `COc1ccc(-c2cc(NCc3ccccn3)n3ncnc3n2)cc1`, the EC50 is 65.9 µM.

As to `CCC(=O)Nc1ccccc1C(=O)OCC(=O)c1ccccc1`, the EC50 is 39.2 µM.

On to `O=C1Nc2ccc(Br)cc2/C1=N/N=C/C1=C(N2CCOCC2)C(=C\c2ccccc2)/CC1`, for which the EC50 is 38.4 µM.

In the case of `COc1cccc(NC(=O)c2nnn(CCc3ccccc3)c2N)c1`, the EC50 is 82.8 µM.

As for `CCCn1c(C(O)c2ccc3c(c2)OCO3)nc2ccccc21` (centres undefined), the EC50 is 17.7 µM.

The term EC50 denotes the concentration that produces a half-maximal response.
